Measured values taken from patent publication US20100092526A1, “NANOEMULSION THERAPEUTIC COMPOSITIONS AND METHODS OF USING THE SAME” (NanoBio Corporation, priority 2008, published 2010).
Converted amounts (≈) assume the structure as drawn. “And” between values parts separate entries of the source, which are not always exact repeats. Equal entries are not always repeated.

Key:
Format in all cases: cell-based
[1] = tested on: methicillin-resistant Staphylococcus aureus (MRSA); experiment: Susceptibility (MIC/MBC) of MRSA clinical isolates; settings: for MBC50(15) / MIC50(15) / MBC90(26) / MIC90(26): 29 MRSA clinical isolates; for MBC50(15) / MIC50(15): rank 15; for MBC90(26) / MIC90(26): rank 26; for MBC / MIC: individual MRSA clinical isolates, values listed by rank order 1-29
[2] = tested on: Stenotrophomonas strains; experiment: Checkerboard synergy study (FIC/FBC index); settings: combined with P4075EC+EDTA
[3] = tested on: Burkholderia strains; experiment: Checkerboard synergy study (FIC/FBC index); settings: combined with P4075EC+EDTA
[4] = tested on: Acinetobacter strains; experiment: Checkerboard synergy study (FIC/FBC index); settings: combined with P4075EC+EDTA
[5] = share of Stenotrophomonas strains with synergy
[6] = share of ten Burkholderia strains with synergy
[7] = share of 10 Acinetobacter strains with synergy

CCC[C@@H]1C[C@@H](C(=O)N[C@@H]([C@H]2O[C@H](SC)[C@H](O)[C@@H](O)[C@H]2O)[C@H](C)Cl)N(C)C1 [Clind]
MBC50(15) [1]: >64 µg/mL | MIC50(15) [1]: >64 µg/mL | MBC90(26) [1]: >64 µg/mL | MIC90(26) [1]: >64 µg/mL | MBC [1]: >64 μg/ml (17×) and >2 μg/ml (10×) and 2 μg/ml and 1 μg/ml | MIC [1]: >64 μg/ml (17×) and 0.125 μg/ml (12×)

C[C@H]1c2cccc(O)c2C(=O)C2=C(O)[C@]3(O)C(=O)C(C(N)=O)=C(O)[C@@H](N(C)C)[C@@H]3[C@@H](O)[C@@H]21 [Dox]
MBC50(15) [1]: >4 µg/mL | MIC50(15) [1]: 0.25 µg/mL (≈ 0.563 µM) | MBC90(26) [1]: >64 µg/mL | MIC90(26) [1]: 4 µg/mL (≈ 9 µM) | MBC [1]: >128 μg/ml and >64 μg/ml (4×) and >4 μg/ml (21×) and 2 μg/ml and 1 μg/ml (2×) | MIC [1]: 4 μg/ml (4×) and 0.25 μg/ml (25×)

CC[C@H]1OC(=O)[C@H](C)[C@@H](O[C@H]2C[C@@](C)(OC)[C@@H](O)[C@H](C)O2)[C@H](C)[C@@H](O[C@@H]2O[C@H](C)C[C@H](N(C)C)[C@H]2O)[C@](C)(O)C[C@@H](C)C(=O)[C@H](C)[C@@H](O)[C@]1(C)O [Eryth]
MIC50(15) [1]: 64 µg/mL (≈ 87.2 µM) | MBC [1]: 64 μg/ml and >4 μg/ml (4×) | MIC [1]: 64 μg/ml (6×) and 32 μg/ml (3×) and 16 μg/ml and 8 μg/ml and 0.25 μg/ml (4×)

NC[C@H]1O[C@H](O[C@H]2[C@H](O)[C@@H](O[C@H]3O[C@H](CO)[C@@H](O)[C@H](N)[C@H]3O)[C@H](N)C[C@@H]2N)[C@H](N)C[C@@H]1O [Tobra]
FBC ([2]; isolate NB42): 2.15 | FIC ([2]; isolate NB42): 0.14 | Synergy (FBC) ([2]; isolate NB42): indifferent | Synergy (FIC) ([2]; isolate NB42): yes | FBC ([2]; isolate NB43): 2.29 | FIC ([2]; isolate NB43): 1.40 | Synergy (FBC) ([2]; isolate NB43): indifferent | Synergy (FIC) ([2]; isolate NB43): indifferent | FBC ([2]; isolate NB44): 2.86 | FIC ([2]; isolate NB44): 1.5 | Synergy (FBC) ([2]; isolate NB44): indifferent | Synergy (FIC) ([2]; isolate NB44): indifferent | FBC ([2]; isolate NB45): 1.50 | FIC ([2]; isolate NB45): 0.97 | Synergy (FBC) ([2]; isolate NB45): indifferent | Synergy (FIC) ([2]; isolate NB45): indifferent | FBC ([2]; isolate Steno 1): 1.57 | FIC ([2]; isolate Steno 1): 0.79 | Synergy (FBC) ([2]; isolate Steno 1): indifferent | Synergy (FIC) ([2]; isolate Steno 1): indifferent | FBC ([2]; isolate Steno 2): 2.23 | FIC ([2]; isolate Steno 2): 0.04 | Synergy (FBC) ([2]; isolate Steno 2): indifferent | Synergy (FIC) ([2]; isolate Steno 2): yes | FBC ([2]; isolate Steno 3): 1.29 | FIC ([2]; isolate Steno 3): 0.79 | Synergy (FBC) ([2]; isolate Steno 3): indifferent | Synergy (FIC) ([2]; isolate Steno 3): indifferent | FBC ([2]; isolate Steno 4): 1.61 | FIC ([2]; isolate Steno 4): 1.72 | Synergy (FBC) ([2]; isolate Steno 4): indifferent | Synergy (FIC) ([2]; isolate Steno 4): indifferent | FBC ([2]; isolate Steno 6): 0.89 | FIC ([2]; isolate Steno 6): 0.59 | Synergy (FBC) ([2]; isolate Steno 6): indifferent | Synergy (FIC) ([2]; isolate Steno 6): indifferent | FBC ([2]; isolate Steno 8): 1.15 | FIC ([2]; isolate Steno 8): 0.63 | Synergy (FBC) ([2]; isolate Steno 8): indifferent | Synergy (FIC) ([2]; isolate Steno 8): indifferent | % FBC Synergy [2, 5]: 0% | % FIC Synergy [2, 5]: 20% | FBC ([3]; isolate NB21): 0.48 | FIC ([3]; isolate NB21): 0.27 | Synergy (FBC) ([3]; isolate NB21): yes | Synergy (FIC) ([3]; isolate NB21): yes | FBC ([3]; isolate NB22): 1.23 | FIC ([3]; isolate NB22): 0.35 | Synergy (FBC) ([3]; isolate NB22): indifferent | Synergy (FIC) ([3]; isolate NB22): yes | FBC ([3]; isolate NB23): 1.09 | FIC ([3]; isolate NB23): 1.06 | Synergy (FBC) ([3]; isolate NB23): indifferent | Synergy (FIC) ([3]; isolate NB23): indifferent | FBC ([3]; isolate NB24): 1.36 | FIC ([3]; isolate NB24): 1.31 | Synergy (FBC) ([3]; isolate NB24): indifferent | Synergy (FIC) ([3]; isolate NB24): indifferent | FBC ([3]; isolate NB25): 0.99 | FIC ([3]; isolate NB25): 1.45 | Synergy (FBC) ([3]; isolate NB25): indifferent | Synergy (FIC) ([3]; isolate NB25): indifferent | FBC ([3]; isolate NB26): 0.92 | FIC ([3]; isolate NB26): 0.12 | Synergy (FBC) ([3]; isolate NB26): indifferent | Synergy (FIC) ([3]; isolate NB26): yes | FBC ([3]; isolate NB27): 1.27 | FIC ([3]; isolate NB27): 1.44 | Synergy (FBC) ([3]; isolate NB27): indifferent | Synergy (FIC) ([3]; isolate NB27): indifferent | FBC ([3]; isolate NB28b): 1.06 | FIC ([3]; isolate NB28b): 0.54 | Synergy (FBC) ([3]; isolate NB28b): indifferent | Synergy (FIC) ([3]; isolate NB28b): yes | FBC ([3]; isolate NB29): 0.07 | FIC ([3]; isolate NB29): 0.32 | Synergy (FBC) ([3]; isolate NB29): yes | Synergy (FIC) ([3]; isolate NB29): yes | FBC ([3]; isolate NB30): 0.54 | FIC ([3]; isolate NB30): 0.27 | Synergy (FBC) ([3]; isolate NB30): yes | Synergy (FIC) ([3]; isolate NB30): yes | % FBC Synergy [3, 6]: 30% | % FIC Synergy [3, 6]: 50% | FBC ([4]; isolate NB31): 1.50 | FIC ([4]; isolate NB31): 0.98 | Synergy (FBC) ([4]; isolate NB31): no | Synergy (FIC) ([4]; isolate NB31): indifferent | FBC ([4]; isolate NB32): 1.79 | FIC ([4]; isolate NB32): 0.88 | Synergy (FBC) ([4]; isolate NB32): no | Synergy (FIC) ([4]; isolate NB32): indifferent | FBC ([4]; isolate NB33): 1.75 | Synergy (FBC) ([4]; isolate NB33): no | Synergy (FIC) ([4]; isolate NB33): indifferent | FBC ([4]; isolate NB34): 0.24 | FIC ([4]; isolate NB34): 0.41 | Synergy (FBC) ([4]; isolate NB34): yes | Synergy (FIC) ([4]; isolate NB34): yes | FIC ([4]; isolate NB35): 1.21 | Synergy (FBC) ([4]; isolate NB35): no | Synergy (FIC) ([4]; isolate NB35): indifferent | FBC ([4]; isolate NB36): 2.29 | FIC ([4]; isolate NB36): 3.30 | Synergy (FBC) ([4]; isolate NB36): no | Synergy (FIC) ([4]; isolate NB36): indifferent | FBC ([4]; isolate NB37): 1.72 | FIC ([4]; isolate NB37): 0.75 | Synergy (FBC) ([4]; isolate NB37): no | Synergy (FIC) ([4]; isolate NB37): indifferent | FBC ([4]; isolate NB38): 1.57 | FIC ([4]; isolate NB38): 1.05 | Synergy (FBC) ([4]; isolate NB38): no | Synergy (FIC) ([4]; isolate NB38): indifferent | FBC ([4]; isolate NB39): 3.52 | FIC ([4]; isolate NB39): 3.30 | Synergy (FBC) ([4]; isolate NB39): no | Synergy (FIC) ([4]; isolate NB39): indifferent | FBC ([4]; isolate NB40): 3.01 | FIC ([4]; isolate NB40): 3.01 | Synergy (FBC) ([4]; isolate NB40): no | Synergy (FIC) ([4]; isolate NB40): indifferent | % FBC Synergy [4, 7]: 10% | % FIC Synergy [4, 7]: 10%
